These results are taken from ChEMBL document CHEMBL5338799, “Synthesis and evaluation of phenylimidazole FabK inhibitors as new Anti-C. Difficile agents” (Bioorg Med Chem, 2023).

Data set [1] is described as follows: Inhibition of Streptococcus pneumoniae FabK expressed in Escherichia coli BL21 (DE3) using crotonyl-CoA as substrate incubated for 10 mins in presence of NADH by microplate reader assay.
Data set [2] in a line: Inhibition of Clostridioides difficile FabK expressed in Escherichia coli BL21 (DE3) using crotonyl-CoA as substrate incubated for 10 mins in presence of NADH by microplate reader assay.
The subject of a further data set is Clostridioides difficile. Kind of data set: Antibacterial activity against Clostridioides difficile R20291 assessed as inhibition of bacterial growth incubated for 24 hrs by broth microdilution method. Format: functional. Background: Dilution methods test growth across graded concentrations, often in twofold steps.
In a further data set the test system is HCT-116. Nature of the data set: cells. Format: functional, cell-based. The conditions noted are these: Homo sapiens, HCT-116, 48 h.
A short description of data set [3]: Solubility of compound by turbidimetric assay. The format is physicochemical.

Values after ≈ are worked out from the molar mass of the structure shown. Some results are limits rather than exact numbers.

Description for HCT-116: Cytotoxicity against human HCT-116 cells assessed as reduction in cell viability incubated for 48 hrs by resazurin dye based assay

Broadly, the IC50 is the concentration that gives 50% inhibition. With `O=C(NCc1nc(-c2ccccc2)c[nH]1)Nc1ncc(Sc2ccccc2)s1`, the IC50 in data set [1] was determined as 37 nM.

A word on the MIC: it is the lowest concentration found to suppress growth. As for `O=C(NCc1ncc(-c2ccccc2)[nH]1)Nc1ncc(Sc2ccccn2)s1`, in data set [2], the 50% inhibitory concentration (IC50) was more than 10000 nM. Besides, the MIC in the data set with Clostridioides difficile was more than 50 µg/mL.

A word on the kinetic solubility: it is solubility judged after dilution from a stock solution rather than from solid. Regarding `O=C(NCc1ncc(-c2ccc(Br)cc2)[nH]1)Nc1ncc(Sc2ccccn2)s1`, the IC50 is 1230 nM in data set [2] and more than 100 µg/mL in the data set on HCT-116. Also, the MIC with Clostridioides difficile is 1.56 µg/mL (≈ 3.2 µM). The solubility (kinetic) in data set [3] was found to be 80.1 µM (≈ 39 µg/mL).

On to `O=C(NCc1nc(-c2ccc(Br)cc2)c[nH]1)Nc1nc2ccc(Cl)cc2s1`, for which the results for the IC50 (in data set [2]; with HCT-116) were 110 nM and more than 100 µg/mL, respectively. Also, the MIC with Clostridioides difficile stood at 6.25 µg/mL (≈ 13.5 µM). In data set [3], the kinetic solubility was 76.9 µM (≈ 35.6 µg/mL).

For `O=C(NCc1nc(-c2ccc(Br)cc2)c[nH]1)Nc1ncc(Sc2ccc(Cl)cn2)s1`, the half-maximal inhibitory concentration (IC50) in data set [2] is 850 nM. In the data set with Clostridioides difficile, the minimum inhibitory concentration (MIC) came out at 3.12 µg/mL (≈ 5.98 µM). Besides, in data set [3], the solubility (kinetic) amounted to 59 µM (≈ 30.8 µg/mL).

For the compound `O=C(NCc1nc2ccccc2[nH]1)Nc1ncc(Sc2ccccn2)s1`, the IC50 in data set [2] is more than 10000 nM. In addition, the minimal inhibitory concentration (MIC) with Clostridioides difficile was more than 50 µg/mL.

Turning to `CCOc1ccc2nc(NC(=O)NCc3nc(-c4ccc(Br)cc4)c[nH]3)sc2c1`, in data set [2], the concentration for half-maximal inhibition (IC50) was found to be 170 nM. Also, the minimum inhibitory concentration (MIC) in the data set with Clostridioides difficile turned out to be 12.5 µg/mL (≈ 26.5 µM). Besides, in data set [3], the kinetic solubility is 79 µM (≈ 37.3 µg/mL).

For the compound `O=C(NCc1nc(-c2ccc(Br)cc2)c[nH]1)Nc1ncc(Sc2ccc3ccccc3n2)s1`, the IC50 in data set [2] turned out to be 750 nM. The minimal inhibitory concentration (MIC) with Clostridioides difficile is more than 50 µg/mL. The solubility (kinetic) in data set [3] worked out at 74.7 µM (≈ 40.1 µg/mL).

As to `O=C(NCc1nc(-c2ccc(Br)cc2)c[nH]1)Nc1ncc(Sc2nc3ccccc3s2)s1`, the half-maximal inhibitory concentration (IC50) in data set [2] is 420 nM. The MIC in the data set with Clostridioides difficile is more than 50 µg/mL. Moreover, in data set [3], the kinetic solubility was determined as 50 µM (≈ 27.2 µg/mL).

Turning to `O=C(NCc1nc(-c2ccc(Br)cc2)c[nH]1)Nc1ncc(Sc2ccc(C(F)(F)F)cn2)s1`, the values for the IC50 (in data set [2]; in the data set on HCT-116) were 770 nM and more than 100 µg/mL, respectively. In addition, the MIC with Clostridioides difficile came to 3.12 µg/mL (≈ 5.62 µM). Besides, the solubility (kinetic) in data set [3] came out at 18.3 µM (≈ 10.2 µg/mL).

In the case of `CS(=O)(=O)c1ccc2nc(NC(=O)NCc3nc(-c4ccc(Br)cc4)c[nH]3)sc2c1`, the concentration for half-maximal inhibition (IC50) in data set [2] was determined as 450 nM. Further, in the data set with Clostridioides difficile, the MIC was more than 100 µg/mL. Besides, the solubility (kinetic) in data set [3] is 44.5 µM (≈ 22.5 µg/mL).

On to `O=C(NCc1nc(-c2ccc(Br)cc2)c[nH]1)Nc1nc2c(F)cc(F)cc2s1`, for which the IC50 in data set [2] was determined as 4530 nM. Also, the MIC in the data set on Clostridioides difficile came out at 12.5 µg/mL (≈ 26.9 µM). The compound further displayed a solubility (kinetic) in data set [3] of 125 µM (≈ 58 µg/mL).

As for `O=C(NCc1nc(-c2ccc(Br)cc2)c[nH]1)Nc1ncc(Sc2ncccc2C(F)(F)F)s1`, the values for the concentration for half-maximal inhibition (IC50) (in data set [2]; with HCT-116) were 240 nM and more than 100 µg/mL, respectively. In addition, in the data set with Clostridioides difficile, the MIC worked out at 1.56 µg/mL (≈ 2.81 µM). The compound further displayed a solubility (kinetic) in data set [3] of 52 µM (≈ 28.9 µg/mL).

In the case of `O=C(NCc1nc2ccccc2c(=O)[nH]1)Nc1ncc(Sc2ccccn2)s1`, the half-inhibitory concentration (IC50) in data set [2] was more than 10000 nM. Further, the MIC in the data set on Clostridioides difficile was more than 50 µg/mL.

For the compound `O=C(NCc1nc(-c2ccc(Br)cc2)c[nH]1)Nc1nc2c(C(F)(F)F)cccc2s1`, the results for the IC50 (in data set [2]; in the data set with HCT-116) were more than 10000 nM and more than 100 µg/mL, respectively. Further, in the data set with Clostridioides difficile, the MIC worked out at 1.56 µg/mL (≈ 3.14 µM).

With `O=C(NCc1nc(-c2ccc(Br)cc2)c[nH]1)Nc1ncc(Sc2ncccn2)s1`, the IC50 in data set [2] was 1020 nM; in the data set on HCT-116 it was more than 100 µg/mL. The minimum inhibitory concentration (MIC) with Clostridioides difficile worked out at 1.56 µg/mL (≈ 3.19 µM). In addition, the solubility (kinetic) in data set [3] was found to be 83.9 µM (≈ 41 µg/mL).

In the case of `O=C(NCc1nc(-c2ccc(Br)cc2)c[nH]1)Nc1nc2ccc(Br)cc2s1`, in data set [2], the half-maximal inhibitory concentration (IC50) came out at 340 nM. In addition, the minimum inhibitory concentration (MIC) in the data set on Clostridioides difficile is 50 µg/mL (≈ 98.6 µM). This compound returned a solubility (kinetic) in data set [3] of 31.3 µM (≈ 15.9 µg/mL).

As for `O=C(NCc1nc(-c2ccc(Br)cc2)c[nH]1)Nc1nc2ccccc2s1`, the half-maximal inhibitory concentration (IC50) in data set [2] was 1880 nM. The MIC in the data set on Clostridioides difficile is more than 50 µg/mL. Also, the kinetic solubility in data set [3] stood at 64.8 µM (≈ 27.8 µg/mL).

Consider `O=C(NCc1nc(-c2ccc(Br)cc2)c[nH]1)Nc1nc2cc(C(F)(F)F)ccc2s1`, for which the concentration for half-maximal inhibition (IC50) in data set [2] was more than 10000 nM. In the data set with Clostridioides difficile, the MIC was 3.12 µg/mL (≈ 6.29 µM).

As to `O=C(NCc1nc(-c2ccc(Br)cc2)c[nH]1)Nc1ncc(Sc2ccc(Br)cc2)s1`, the IC50 in data set [2] is 530 nM. For the same compound, the MIC with Clostridioides difficile was found to be 25 µg/mL (≈ 44.2 µM). Besides, in data set [3], the solubility (kinetic) amounted to 63.6 µM (≈ 36 µg/mL).

Turning to `O=C(NCc1nc(-c2ccc(Br)cc2)c[nH]1)Nc1ncc(Sc2ccccc2)s1`, the IC50 in data set [2] was 900 nM. Also, the MIC in the data set on Clostridioides difficile turned out to be 1.56 µg/mL (≈ 3.21 µM).

Consider `O=C(NCc1nc(-c2ccc(Br)cc2)c[nH]1)Nc1nc2cccc(C(F)(F)F)c2s1`, for which, in data set [2], the IC50 was 2810 nM.

In the case of `COC(=O)c1ccc2nc(NC(=O)CSc3nc4ccccc4[nH]3)sc2c1`, the half-maximal inhibitory concentration (IC50) in data set [2] turned out to be 4200 nM; in data set [1], 1800 nM.

In the case of `O=C(NCc1nc(-c2ccc(Br)cc2)c[nH]1)Nc1nc2ccc(F)cc2s1`, the IC50 in data set [2] was 230 nM. The kinetic solubility in data set [3] is 61.3 µM (≈ 27.4 µg/mL).

With `O=C(NCc1nc(-c2ccc(Br)cc2)c[nH]1)Nc1nc2ccc(OC(F)(F)F)cc2s1`, in data set [2], the half-inhibitory concentration (IC50) was 90 nM. Moreover, the MIC with Clostridioides difficile amounted to 12.5 µg/mL (≈ 24.4 µM).
